In patent US8741836B2, “Polypeptides” (Novo Nordisk A/S, priority 2011, dated 2014):
Starred links: 1 amine or outer side, 2 acyl side, 3 side chain; linkers in the order of their positions; H or OH if unused. Positions of bridges follow the written chain, without caps; N, C: chain ends. Residues, ends and D or L forms follow the SMILES beside them. *: point of attachment. C20 diacid = O=C(O)CCCCCCCCCCCCCCCCCCC(=O)*; γGlu = O=C(O)[C@H](CCC(=O)[*:2])N[*:1]

Assay: Assay (III) ThT fibrillation assay for physical stability
Format: physicochemical
Conditions: pH 4.0, ThT fibrillation assay
Summary of the method: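 Freshly prepared, pH-adjusted formulations with 1 μM ThT incubated at 37 °C under 960 rpm orbital shaking (1 mm), fluorescence (ex 444, em 485 nm) read every 20 min. […] Peptide content before and after measured by reverse-phase HPLC against pramlintide standard.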

| Compound | ThT pH 4.0 lag time [h] |
| --- | --- |
| CC[C@H](C)[C@H](NC(=O)[C@@H]1CCCN1C(=O)CNC(=O)[C@H](Cc1ccccc1)NC(=O)[C@H](CC(N)=O)NC(=O)[C@H](CC(N)=O)NC(=O)[C@H](CO)NC(=O)[C@H](CO)NC(=O)[C@H](Cc1c[nH]cn1)NC(=O)[C@H](Cc1c[nH]cn1)NC(=O)[C@H](CC(C)C)NC(=O)[C@H](Cc1ccccc1)NC(=O)[C@H](CCC(=O)O)NC(=O)[C@H](C)NC(=O)[C@H](CC(C)C)NC(=O)[C@H](CCCNC(=N)N)NC(=O)[C@H](CCC(N)=O)NC(=O)[C@@H](NC(=O)[C@H](C)NC(=O)[C@@H]1CSSC[C@H](NC(=O)[C@H](CCCNC(=N)N)NC(=O)CC[C@H](NC(=O)CCCCCCCCCCCCCCCCCCC(=O)O)C(=O)O)C(=O)N[C@@H](CC(N)=O)C(=O)N[C@@H]([C@@H](C)O)C(=O)N[C@@H](C)C(=O)N[C@@H]([C@@H](C)O)C(=O)N1)[C@@H](C)O)C(=O)N[C@@H](CC(C)C)C(=O)N1CCC[C@H]1C(=O)N1CCC[C@H]1C(=O)N[C@H](C(=O)N[C@@H](CC(N)=O)C(=O)N[C@H](C(=O)NCC(=O)N[C@@H](CO)C(=O)N[C@@H](Cc1c[nH]cn1)C(=O)N[C@H](C(=O)N[C@@H](Cc1ccc(O)cc1)C(N)=O)[C@@H](C)O)C(C)C)[C@@H](C)O [Example 95, N-alpha-[(S)-4-Carboxy-4-(19-carboxynonadecanoylamino)butyryl]-[Arg1,Glu14,His17,His35]-pramlintide] ({C20 diacid-γGlu}-RCNTATCATQRLAEFLHHSSNNFGPILPPTNVGSHTY-NH2; disulfide 2-7 (inferred)) | >45 |
| CC[C@H](C)[C@H](NC(=O)[C@@H]1CCCN1C(=O)CNC(=O)[C@H](Cc1ccccc1)NC(=O)[C@H](CC(N)=O)NC(=O)[C@H](CC(N)=O)NC(=O)[C@H](CO)NC(=O)[C@H](CO)NC(=O)[C@H](Cc1c[nH]cn1)NC(=O)[C@H](CCCNC(=N)N)NC(=O)[C@H](CC(C)C)NC(=O)[C@H](Cc1ccccc1)NC(=O)[C@H](CCC(=O)O)NC(=O)[C@H](C)NC(=O)[C@H](CC(C)C)NC(=O)[C@H](CCCNC(=N)N)NC(=O)[C@H](CCC(N)=O)NC(=O)[C@@H](NC(=O)[C@H](C)NC(=O)[C@@H]1CSSC[C@H](NC(=O)[C@H](CCCCN)NC(=O)[C@H](Cc2c[nH]cn2)NC(=O)[C@H](Cc2c[nH]cn2)NC(=O)CC[C@H](NC(=O)CCCCCCCCCCCCCCCCCCC(=O)O)C(=O)O)C(=O)N[C@@H](CC(N)=O)C(=O)N[C@@H]([C@@H](C)O)C(=O)N[C@@H](C)C(=O)N[C@@H]([C@@H](C)O)C(=O)N1)[C@@H](C)O)C(=O)N[C@@H](CC(C)C)C(=O)N1CCC[C@H]1C(=O)N1CCC[C@H]1C(=O)N[C@H](C(=O)N[C@@H](CC(N)=O)C(=O)N[C@H](C(=O)NCC(=O)N[C@@H](CO)C(=O)N[C@@H](Cc1c[nH]cn1)C(=O)N[C@H](C(=O)N[C@@H](Cc1ccc(O)cc1)C(N)=O)[C@@H](C)O)C(C)C)[C@@H](C)O [Example 69, N-alpha-[(S)-4-Carboxy-4-(19-carboxynonadecanoylamino)butyryl]-His-His-[Glu14,Arg17,His35]-pramlintide] ({C20 diacid-γGlu}-HHKCNTATCATQRLAEFLRHSSNNFGPILPPTNVGSHTY-NH2; disulfide 4-9) | >45 |
